Results: patent publication US8735414B2 (priority 2009, dated 2014)

Experiments:
[1] = test system: bicistronic HCV replicon (replicon RNA, GenBank Accession No. AJ242654); test: HCV Replicon Assay; type: cell-based; conditions: Hepatitis C virus, 72 h, read-out: Replicon IC50

| SMILES | IC50 [1] [nM] | melting point [°C] |
| --- | --- | --- |
| CC(C)NS(=O)(=O)c1cnc(-c2c(C#N)c3ccc(OC(F)F)cc3n2C2CCCCC2)nc1 [compound 473, 2-[3-cyano-1-cyclohexyl-6-(difluoromethoxy)-1H-indol-2-yl]-N-(propan-2-yl)pyrimidine-5-sulfonamide] | < 500 | 176 to 179 |
| Cc1ccc2c(C#N)c(-c3ccc(S(=O)(=O)NC(C)(C)C(F)(F)F)cn3)n(C3CCC3)c2c1 [compound 478, 6-(3-cyano-1-cyclobutyl-6-methyl-1H-indol-2-yl)-N-(1,1,1-trifluoro-2-methylpropan-2-yl)pyridine-3-sulfonamide] | < 500 | 222 to 227 |
| N#Cc1c(-c2ccc(S(=O)(=O)NC(CF)CF)cn2)n(C2CC2)c2cc(C3CC3)ccc12 [compound 147, 6-(3-cyano-1,6-dicyclopropyl-1H-indol-2-yl)-N-(1,3-difluoropropan-2-yl)pyridine-3-sulfonamide] | < 500 | 226 to 228 |
| C[C@H](NS(=O)(=O)c1cnc(-c2c(C#N)c3ccc(CC(F)F)cc3n2C2CCCC2)nc1)C1CC1 [compound 597, 2-[3-cyano-1-cyclopentyl-6-(2,2-difluoroethyl)-1H-indol-2-yl]-N-[(1S)-1-cyclopropylethyl]pyrimidine-5-sulfonamide] | < 500 | 181 to 189 |
| CC(C)NS(=O)(=O)c1cnc(-c2c(C#N)c3cc(F)ccc3n2C2CCCCC2)nc1 [compound 526, 2-(3-cyano-1-cyclohexyl-5-fluoro-1H-indol-2-yl)-N-(propan-2-yl)pyrimidine-5-sulfonamide] | < 500 | 223 to 225 |
| Cc1ccc2c(C#N)c(-c3ncc(S(=O)(=O)NC(CF)CF)cn3)n(C(C)C)c2c1 [compound 134, 2-[3-cyano-6-methyl-1-(propan-2-yl)-1H-indol-2-yl]-N-(1,3-difluoropropan-2-yl)pyrimidine-5-sulfonamide] | < 500 | 213 to 215 |
| CCc1cc2c(cc1F)c(C#N)c(-c1ccc(S(=O)(=O)N[C@@H](C)C(F)(F)F)cn1)n2-c1ccc(Cl)cc1 [compound 1003, 6-[1-(4-chlorophenyl)-3-cyano-6-ethyl-5-fluoro-1H-indol-2-yl]-N-[(2S)-1,1,1-trifluoropropan-2-yl]pyridine-3-sulfonamide] | < 500 | 279 to 289 |
| Cc1ccc2c(c1)c(C#N)c(-c1ncc(S(=O)(=O)N[C@@H](C)C3CC3)cn1)n2C(C)C [compound 563, 2-[3-cyano-5-methyl-1-(propan-2-yl)-1H-indol-2-yl]-N-[(1S)-1-cyclopropylethyl]pyrimidine-5-sulfonamide] | 500 to 2000 | 171 to 174 |
| CC(C)(C)NS(=O)(=O)c1ccc(-c2c(C#N)c3cc(F)c(Br)cc3n2-c2ncccn2)nc1 [compound 938, 6-[6-bromo-3-cyano-5-fluoro-1-(pyrimidin-2-yl)-1H-indol-2-yl]-N-tert-butylpyridine-3-sulfonamide] | < 500 | 266 to 268 |
| Cc1cc2c(cc1Cl)c(C#N)c(-c1ccc(S(=O)(=O)N[C@@H](C)C(F)(F)F)cn1)n2-c1ccc(F)cn1 [compound 804, 6-[5-chloro-3-cyano-1-(5-fluoropyridin-2-yl)-6-methyl-1H-indol-2-yl]-N-[(2S)-1,1,1-trifluoropropan-2-yl]pyridine-3-sulfonamide] | < 500 | 210 to 212 |
| Cc1ccc2c(c1)c(C#N)c(-c1ncc(S(=O)(=O)N[C@@H](C)C3CC3)cn1)n2C1CCCC1 [compound 562, 2-(3-cyano-1-cyclopentyl-5-methyl-1H-indol-2-yl)-N-[(1S)-1-cyclopropylethyl]pyrimidine-5-sulfonamide] | < 500 | 168 to 171 |
| C[C@@H](NS(=O)(=O)c1ccc(-c2c(C#N)c3cc(Cl)ccc3n2C2CCCCC2)nc1)C(F)(F)F [compound 461, 6-(5-chloro-3-cyano-1-cyclohexyl-1H-indol-2-yl)-N-[(2R)-1,1,1-trifluoropropan-2-yl]pyridine-3-sulfonamide] | < 500 | 226 to 227 |
| CCNC(=O)c1c(-c2ccc(S(=O)(=O)N[C@@H](C)C(F)(F)F)cn2)n(C2CCCC2)c2cc(C)c(F)cc12 [compound 762, 1-cyclopentyl-N-ethyl-5-fluoro-6-methyl-2-(5-{[(2S)-1,1,1-trifluoropropan-2-yl]sulfamoyl}pyridin-2-yl)-1H-indole-3-carboxamide] | < 500 | 160 to 162 |
| C[C@H](NS(=O)(=O)c1cnc(-c2c(C#N)c3ccc(Cl)cc3n2-c2ccccn2)nc1)C(F)(F)F [compound 449] | < 500 | 163 to 166 |
| CC(C)Oc1ccc2c(C#N)c(-c3ccc(NS(=O)(=O)C4CC4)cn3)n(CC3CC3)c2c1 [compound 280, N-{6-[3-cyano-1-(cyclopropylmethyl)-6-(propan-2-yloxy)-1H-indol-2-yl]pyridin-3-yl}cyclopropanesulfonamide] | 500 to 2000 | 150 to 155 |
| COc1ccc2c(C#N)c(-c3ccc(S(=O)(=O)N[C@H](C)C(F)(F)F)cn3)n(C3CCCC3)c2c1 [compound 431, 6-(3-cyano-1-cyclopentyl-6-methoxy-1H-indol-2-yl)-N-[(2R)-1,1,1-trifluoropropan-2-yl]pyridine-3-sulfonamide] | < 500 | 209 to 216 |
| Cc1cc2c(cc1Cl)c(C#N)c(-c1ccc(S(=O)(=O)N[C@H](C)C(F)(F)F)cn1)n2C1CCC1 [compound 445, 6-(5-chloro-3-cyano-1-cyclobutyl-6-methyl-1H-indol-2-yl)-N-[(2R)-1,1,1-trifluoropropan-2-yl]pyridine-3-sulfonamide] | < 500 | 213 to 215 |
| C[C@H](NS(=O)(=O)c1ccc(-c2c(C#N)c3ccc(OC(F)F)cc3n2-c2ccccc2)nc1)C(F)(F)F [compound 553, 6-[3-cyano-6-(difluoromethoxy)-1-phenyl-1H-indol-2-yl]-N-[(2S)-1,1,1-trifluoropropan-2-yl]pyridine-3-sulfonamide] | < 500 | 209 to 211 |
| N#Cc1c(-c2ccc(NS(=O)(=O)C3CC3)cn2)n(CC2CC2)c2cc(OC(F)F)ccc12 [compound 270, N-{6-[3-cyano-1-(cyclopropylmethyl)-6-(difluoromethoxy)-1H-indol-2-yl]pyridin-3-yl}cyclopropanesulfonamide] | 2000 to 5000 | 156 to 158 |
| Cc1ccc2c(c1)c(C#N)c(-c1ncc(S(=O)(=O)N[C@@H](C)C(F)(F)F)cn1)n2C1CCCC1 [compound 391, 2-(3-cyano-1-cyclopentyl-5-methyl-1H-indol-2-yl)-N-[(2S)-1,1,1-trifluoropropan-2-yl]pyrimidine-5-sulfonamide] | < 500 | 180 to 185 |
| CCc1cc2c(cc1F)c(C(N)=O)c(-c1ccc(S(=O)(=O)NC3(C(F)(F)F)CC3)cn1)n2-c1ncccn1 [compound 979, 6-ethyl-5-fluoro-1-(pyrimidin-2-yl)-2-(5-{[1-(trifluoromethyl)cyclopropyl]sulfamoyl}pyridin-2-yl)-1H-indole-3-carboxamide] | 2000 to 5000 | 240 to 247 |
| COc1ccc2c(C#N)c(-c3ncc(S(=O)(=O)NC(C)C)cn3)n(C3CCC3)c2c1 [compound 172, 2-(3-cyano-1-cyclobutyl-6-methoxy-1H-indol-2-yl)-N-(propan-2-yl)pyrimidine-5-sulfonamide] | < 500 | 200 to 202 |
| C[C@H](NS(=O)(=O)c1cnc(-c2c(C#N)c3ccc(CC(F)F)cc3n2C2CCCC2)nc1)C(F)(F)F [compound 600, 2-[3-cyano-1-cyclopentyl-6-(2,2-difluoroethyl)-1H-indol-2-yl]-N-[(2S)-1,1,1-trifluoropropan-2-yl]pyrimidine-5-sulfonamide] | < 500 | 240 to 246 |
| CCc1cc2c(cc1F)c(C#N)c(-c1ccc(S(=O)(=O)N[C@@H](C)C(F)(F)F)cn1)n2-c1cccc(C)c1 [compound 1009, 6-[3-cyano-6-ethyl-5-fluoro-1-(3-methylphenyl)-1H-indol-2-yl]-N-[(2S)-1,1,1-trifluoropropan-2-yl]pyridine-3-sulfonamide] | < 500 | 193 to 198 |
| Cc1cc2c(cc1F)c(C#N)c(-c1ccc(S(=O)(=O)N[C@@H](C)C(F)(F)F)cn1)n2-c1ccoc1 [compound 991, 6-[3-cyano-5-fluoro-1-(furan-3-yl)-6-methyl-1H-indol-2-yl]-N-[(2S)-1,1,1-trifluoropropan-2-yl]pyridine-3-sulfonamide] | < 500 | 215 to 219 |
| C[C@H](NS(=O)(=O)c1ccc(-c2c(C(N)=O)c3cc(F)c(OC(F)F)cc3n2C2CCC2)nc1)C(F)(F)F [compound 703, 1-cyclobutyl-6-(difluoromethoxy)-5-fluoro-2-(5-{[(2S)-1,1,1-trifluoropropan-2-yl]sulfamoyl}pyridin-2-yl)-1H-indole-3-carboxamide] | < 500 | 184 to 186 |
| CC(C)NS(=O)(=O)c1cnc(-c2c(C#N)c3cc(Cl)ccc3n2C(C)C)nc1 [compound 120, 2-[5-chloro-3-cyano-1-(propan-2-yl)-1H-indol-2-yl]-N-(propan-2-yl)pyrimidine-5-sulfonamide] | < 500 | 202 to 220 |
| C[C@@H](NS(=O)(=O)c1ccc(-c2c(C#N)c3ccc(Cl)cc3n2C2CCC2)nc1)C(F)(F)F [compound 222, 6-(6-chloro-3-cyano-1-cyclobutyl-1H-indol-2-yl)-N-[(2R)-1,1,1-trifluoropropan-2-yl]pyridine-3-sulfonamide] | < 500 | 202 to 206 |
| C[C@H](NS(=O)(=O)c1ccc(-c2c(C#N)c3cc(Cl)ccc3n2-c2ccccn2)nc1)C1CC1 [compound 490, 6-[5-chloro-3-cyano-1-(pyridin-2-yl)-1H-indol-2-yl]-N-[(1S)-1-cyclopropylethyl]pyridine-3-sulfonamide] | 2000 to 5000 | 136 to 139 |
